From US8486936B2, “Antagonist of smoothened” (AllaChem, LLC, priority 2009, dated 2013)

These compounds were tested on Hh-signalling cascade (assay: Inhibition of SHh-stimulated alkaline phosphatase in C3H10T1/2 cells (Hh-signalling cascade IC50)). Conditions: Mus musculus, C3H 10T1/2, 384-well plates, triplicates, SHh protein stimulation, read-out: Activity (IC50, half maximal inhibition of stimulation of cell alkaline phosphatase by SHh).
Assay type: cell-based
Method: Version 1—manual setup, 96-well plates, dose-response, C3H/10T1/2 cells. Aim: to determine activity of Sonic Hedgehog pathway inhibitors.
• C3H/10T1/2 cells, grown in DMEM medium/10% FBS to 60-80% confluent • Assay Plates: 96-well half-area tissue culture plates Corning cat. #3697 • Tested compounds as 10 mM DMSO solutions in 96-tube racks • Recombinant Human Sonic Hedgehog (C2411) protein, RDS product #1845-SH, reconstituted at 200 μg/ml in PBS. • Lysis Buffer: 10 mM Ethanolamine Buffer (pH 8.0), 0.2% Triton-X100, supplemented 1:100 with Protease Inhibitor Cocktail (EMD Bioscience product #539134). • CSPD Alkaline Phosphatase Substrate with Emerald-II (Applied Biosystems product #T2212). • Prepare 1 Assay plate for every 4 compounds (see FIG. 1): • 1. Harvest C3H/10T1/2 cells with TrypLE Express solution according to a regular cell subculture protocol • 2. Count the cells and calculate dilution necessary to obtain cell suspension at 5×10^3 cells per 40 μl ([…]) • 3. Dilute cells with DMEM/10% FBS and distribute at 40 μl/well • 4. Place the plate(s) into the incubator and allow cells to attach for 3-5 hours • Prepare dilution plate: • 1. Designate 1 column for each compound • 2. Add 99 μl of DMEM/10% FBS to the wells in row A and 50 μl to the wells in rows B-H • 3. Add 1 μl of compound DMSO stocks to the wells in row A, mix, change the tip. • 4. Transfer […] of compound solutions in row A to the wells in row B, mix, change the tip • 5. […] Row G is a “no compound” positive control; row H is a “no Hedgehog” negative control • Add 5 μl/well of 10× compound dilutions from dilution plate to the corresponding wells in assay plates (see assay plate layout). Use 125 μl automatic repeating pipettor. • Place plates into incubator for 20-30 min. • Prepare 3 μg/ml 10× solution of Sonic Hedgehog (C24II) protein (Hh) in DMEM/10% FBS: • 1. Calculate total volume needed as 500 μl per full plate or 125 μl per each compound tested • 2. Add 1.5 μl of Hh stock solution (200 μg/ml in PBS) per each 98.5 μl of medium • Add 5 μl/well of 10× Hh solution to the wells in rows A-G, add 5 μl/well of medium to the wells in row H (see assay plate layout). Use 125 μl automatic repeating pipettor. • Place plates into incubator for 3 days. • Wash cells on plate: aspirate medium, add 100 μl/well of PBS or HBSS and aspirate again. • Add 20 μl/well of lysis buffer and incubate for 15 min. at room temperature on a shaker platform. • Transfer 7.5 μl/well of cell lysate into white opaque plates and add 45 μl/well of CSPD Alkaline Phosphatase substrate. • Cover from light and incubate for 45 min. at room temperature on a shaker platform. • Read the plate(s) on Wallac VictorV reader using Luminescence (0.1 s) protocol.
Cells C3H10T1/2 were used for identification of inhibitors of SHh-protein signaling cascade. SHh-protein activates cells C3H10T1/2, that leads to their osteogenic differentiation [1) Kinto N., Iwamoto M., Enomoto-Iwamoto M., Noji S., Ohuchi H., Yoshioka H., Kataoka H., Wada Y., Yuhao G., Takahashi H. E., Yoshiki S., Yamaguchi A. Fibroblasts expressing Sonic hedgehog induce osteoblast differentiation and ectopic bone formation. FEBS Lett. 1997; 404 (2-3): 319-23. 2) Spinella-Jaegle S., Rawadi G., Kawai S., Gallea S., Faucheu C., Mollat P., Courtois B., Bergaud B., Ramez V., Blanchet A. M., Adelmant G., Baron R., Roman-Roman S. Sonic hedgehog increases the commitment of pluripotent mesenchymal cells into the osteoblastic lineage and abolishes adipocytic differentiation. J. Cell Sci. 2001; 114 (Pt 11): 2085-94] and, in particular, to expression enhancement of alkaline phosphatase enzyme.
The cells were cultivated in DMEM medium with 10% embryonal calfish serum in incubator at 37° C., 100% humidity and 5% CO2 content. The cells were placed in 384-well plates and left for a night. […]

IC50 [nM]	Structure (SMILES)
< 500	COc1ccc(C(=O)Nc2ccc(-c3cn4cccc(C)c4n3)cc2)c(Br)c1 [Cpd-001]
< 500	Cc1cccn2cc(-c3ccc(NC(=O)c4ccc(S(C)(=O)=O)cc4Cl)cc3)nc12 [Cpd-002]
< 500	Cc1cccn2cc(-c3ccc(NC(=O)c4ccc(S(C)(=O)=O)cc4Br)cc3)nc12 [Cpd-003]
500 to 5000	COc1ccc(C(=O)Nc2ccc(-c3cn4cccc(C)c4n3)cc2)c(Oc2ccncc2)c1 [Cpd-004]
< 500	COc1ccc(C(=O)Nc2ccc(-c3cn4cccc(C)c4n3)cc2)c(Cl)c1 [Cpd-005]
500 to 5000	Cc1cccn2cc(-c3ccc(NC(=O)c4ccccc4F)cc3)nc12 [Cpd-006]
5000 to 50000	Cc1cccn2cc(-c3ccc(NC(=O)c4ccc(F)cc4F)cc3)nc12 [Cpd-007]
500 to 5000	CCc1cccn2cc(-c3ccc(NC(=O)c4ccc(F)cc4F)cc3)nc12 [Cpd-008]
5000 to 50000	Cc1cccn2cc(-c3ccc(NC(=O)c4ccc(Cl)cc4Cl)cc3)nc12 [Cpd-009]
< 500	CCOc1ccc(C(=O)Nc2ccc(-c3cn4cccc(C)c4n3)cc2)c(Cl)c1 [Cpd-010]
< 500	COc1ccc(C(=O)Nc2ccc(-c3cn4cccc(C)c4n3)cc2)c(F)c1 [Cpd-011]
500 to 5000	Cc1cccn2cc(-c3ccc(NC(=O)c4ccc5c(c4)OCO5)cc3)nc12 [Cpd-012]
< 500	COc1ccc(C(=O)Nc2ccc(-c3cn4cccc(C)c4n3)cc2)cc1OC [Cpd-013]
5000 to 50000	Cc1cccn2cc(-c3ccc(NC(=O)c4ccc(C(C)C)cc4)cc3)nc12 [Cpd-014]
500 to 5000	Cc1cccn2cc(-c3ccc(NC(=O)c4ccc(C(C)(C)C)cc4)cc3)nc12 [Cpd-015]
> 50000	Cc1cccn2cc(-c3ccc(NC(=O)c4ccc(C(F)(F)F)cc4)cc3)nc12 [Cpd-016]
5000 to 50000	Cc1cccn2cc(-c3ccc(NC(=O)c4ccc(-c5ccccc5)cc4)cc3)nc12 [Cpd-017]
< 500	Cc1cccc(C)c1C(=O)Nc1ccc(-c2cn3cccc(C)c3n2)cc1 [Cpd-018]
500 to 5000	CCOc1ccc(C(=O)Nc2ccc(-c3cn4cccc(C)c4n3)cc2)c(Br)c1 [Cpd-019]
< 500	Cc1cc(S(C)(=O)=O)ccc1C(=O)Nc1ccc(-c2cn3cccc(C)c3n2)cc1 [Cpd-020]
